In PMC4657098, “A Review of the Updated Pharmacophore for the Alpha 5 GABA(A) Benzodiazepine Receptor Model” (International Journal of Medicinal Chemistry, 2015):

Key:
[1] = target: α3β3γ2 GABAA/BzR (Homo sapiens, UniProt P18507+P34903); experiment: Competition binding to HEK cell membranes, α3β3γ2; set-up: expressed in transfected cells; conditions: Ki α3
[2] = target: T1, H4 (Homo sapiens, UniProt Q9H3N8); experiment: PDSP receptor binding, H4; conditions: PDSP primary screen at 10 µM
T1 construct: purchased NIMH PDSP (Psychoactive Drug Screening Program, Roth lab, Case Western Reserve)

[3] = test system: other receptors (PDSP panel); experiment: Full PDSP panel receptor binding; conditions: NIMH PDSP, Case Western Reserve
[4] = target: T2, α4β3γ2 GABAA/BzR (Homo sapiens, UniProt P18507+P48169); experiment: biochemical; assay type: binding
T2 construct: expressed in transfected cells; host or cells: LTK cells (given for XLi-093 only)

[5] = target: T3, 5ht7 (Homo sapiens, UniProt P34969); experiment: PDSP receptor binding, 5ht7; conditions: PDSP primary screen at 10 µM
T3 construct: purchased NIMH PDSP (Psychoactive Drug Screening Program, Roth lab, Case Western Reserve)

[6] = target: T4, D5 (Homo sapiens, UniProt P21918); experiment: PDSP receptor binding, D5; conditions: PDSP primary screen at 10 µM
T4 construct: purchased NIMH PDSP (Psychoactive Drug Screening Program, Roth lab, Case Western Reserve)

[7] = target: T5, α2C (Homo sapiens, UniProt P18825); experiment: PDSP receptor binding, α2C; conditions: PDSP primary screen at 10 µM
T5 construct: purchased NIMH PDSP (Psychoactive Drug Screening Program, Roth lab, Case Western Reserve)

[8] = target: α4β3γ2 BzR/GABA(A); conditions: Figure 1; LTK cells; read-out: Binding affinity α4; cited from earlier work
[9] = target: T6, α1A (Homo sapiens, UniProt P35348); experiment: PDSP receptor binding, α1A; conditions: PDSP primary screen at 10 µM
T6 construct: purchased NIMH PDSP (Psychoactive Drug Screening Program, Roth lab, Case Western Reserve)

[10] = target: T7, D1 (Homo sapiens, UniProt P21728); experiment: PDSP receptor binding, D1; conditions: PDSP primary screen at 10 µM
T7 construct: purchased NIMH PDSP (Psychoactive Drug Screening Program, Roth lab, Case Western Reserve)

[11] = target: T8, Beta2 (Homo sapiens, UniProt P07550); experiment: PDSP receptor binding, Beta2; conditions: PDSP primary screen at 10 µM
T8 construct: purchased NIMH PDSP (Psychoactive Drug Screening Program, Roth lab, Case Western Reserve)

[12] = target: T9, 5ht1d (Homo sapiens, UniProt P28221); experiment: PDSP receptor binding, 5ht1d; conditions: PDSP primary screen at 10 µM
T9 construct: purchased NIMH PDSP (Psychoactive Drug Screening Program, Roth lab, Case Western Reserve)

[13] = target: T10, NET (Homo sapiens, UniProt P23975); experiment: PDSP receptor binding, NET; conditions: PDSP primary screen at 10 µM
T10 construct: purchased NIMH PDSP (Psychoactive Drug Screening Program, Roth lab, Case Western Reserve)

[14] = target: T11, M1 (Homo sapiens, UniProt P11229); experiment: PDSP receptor binding, M1; conditions: PDSP primary screen at 10 µM
T11 construct: purchased NIMH PDSP (Psychoactive Drug Screening Program, Roth lab, Case Western Reserve)

[15] = test system: GABA(A) receptor subtypes; conditions: up to a concentration of 1 μM; any one of the subtypes tested; cited from earlier work
[16] = test system: C57BL/6J mice; assay type: in vivo
Excerpt: Figure 3 XLi-093 (4) effects on cognition enhancement by Wenger et al. (data on statistical significance not shown, unpublished results). Effects of 4 on cognition from the mean delay achieved by C57BL/6J mice titrating delayed matching-to-position schedule.

[17] = target: T12, CB2 (Homo sapiens, UniProt P34972); experiment: PDSP receptor binding, CB2; conditions: PDSP primary screen at 10 µM
T12 construct: purchased NIMH PDSP (Psychoactive Drug Screening Program, Roth lab, Case Western Reserve)

[18] = test system: α2β3γ2 GABAA receptor; conditions: cited from earlier work
[19] = PDSP receptor binding, β1B; conditions: PDSP primary screen at 10 µM
[20] = target: T13, MOR (Homo sapiens, UniProt P35372); experiment: PDSP receptor binding, MOR; conditions: PDSP primary screen at 10 µM
T13 construct: purchased NIMH PDSP (Psychoactive Drug Screening Program, Roth lab, Case Western Reserve)

[21] = target: α6β3γ2 GABAA/BzR (Homo sapiens, UniProt P18507+Q16445); experiment: Competition binding to HEK cell membranes, α6β3γ2; set-up: expressed in transfected cells; conditions: Ki α6
[22] = test system: α1β3γ2 GABAA receptor; conditions: cited from earlier work
[23] = target: T14, DOR (Homo sapiens, UniProt P41143); experiment: PDSP receptor binding, DOR; conditions: PDSP primary screen at 10 µM
T14 construct: purchased NIMH PDSP (Psychoactive Drug Screening Program, Roth lab, Case Western Reserve)

C#Cc1ccc2c(c1)C(=O)N(C)Cc1c(C(=O)OCCCOC(=O)c3ncn4c3CN(C)C(=O)c3cc(C#C)ccc3-4)ncn1-2 [XLi-093 (4), 1,3-Bis(8-acetyleno-5,6-dihydro-5-methyl-6-oxo-4H-imidazo[1,5a][1,4]benzodiazepine-3-carboxy) propyl diester]
Ki [1]: 858 nM
H4 binding [2]: ∗ (“∗” indicates “primary missed” (<50% inhibition at 10 µM))
full panel receptor binding [3]: do not bind to other receptors at levels of concern
Ki [4]: 1550 nM
5ht7 binding [5]: ∗ (“∗” indicates “primary missed” (<50% inhibition at 10 µM))
D5 binding [6]: ∗ (“∗” indicates “primary missed” (<50% inhibition at 10 µM))
α2C binding [7]: ∗ (“∗” indicates “primary missed” (<50% inhibition at 10 µM))
Ki [8]: 1550 nM
α1A binding [9]: ∗ (“∗” indicates “primary missed” (<50% inhibition at 10 µM))
D1 binding [10]: ∗ (“∗” indicates “primary missed” (<50% inhibition at 10 µM))
Beta2 binding [11]: ∗ (“∗” indicates “primary missed” (<50% inhibition at 10 µM))
5ht1d binding [12]: ∗ (“∗” indicates “primary missed” (<50% inhibition at 10 µM))
NET binding [13]: ∗ (“∗” indicates “primary missed” (<50% inhibition at 10 µM))
M1 binding [14]: ∗ (“∗” indicates “primary missed” (<50% inhibition at 10 µM))
triggering of chloride flux [15]: did not trigger chloride flux
performance (mean delay achieved) ([16]; C57BL/6J mice, preliminary data, unpublished results (Wenger et al.)): enhances performance
crossing of the blood brain barrier ([16]; inferred from the cognition effect in mice): does cross the blood brain barrier
CB2 binding [17]: ∗ (“∗” indicates “primary missed” (<50% inhibition at 10 µM))
modulation of GABA induced chloride flux, α2β3γ2 ([18]; at 1 μM): did not modulate
influence on benzodiazepine (Valium) stimulation of GABA-induced current, α2β3γ2 [18]: barely influenced
β1B binding [19]: ∗ (“∗” indicates “primary missed” (<50% inhibition at 10 µM))
MOR binding [20]: ∗ (“∗” indicates “primary missed” (<50% inhibition at 10 µM))
Ki [21]: > 2000 nM
modulation of GABA induced chloride flux, α1β3γ2 ([22]; at 1 μM): did not modulate
influence on benzodiazepine (Valium) stimulation of GABA-induced current, α1β3γ2 [22]: barely influenced
DOR binding [23]: ∗ (“∗” indicates “primary missed” (<50% inhibition at 10 µM))
